In US10294202B2, “Pyrrolidinones as herbicides” (FMC Corporation, priority 2013, dated 2019):

Columns and labels:
[1] = test system: wheat; test: Test A pre-/postemergence herbicide test; format: in vivo, Triticum aestivum; details: Postemergence
Summary of the method: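 Visual injury ratings, 0 = no effect, 100 = complete control, taken ~10 days after treatment against untreated greenhouse controls. Preemergence: directed soil spray onto seeded loam/sand pots. Postemergence: spray onto plants at one- to two-leaf stage, 2–10 cm tall.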

[2] = test system: rice; test: Test B flooded paddy test; format: in vivo, Oryza sativa; details: 500 g ai/ha, Flood; scale of 0 to 100 where 0 is no effect and 100 is complete control
Summary of the method: (§1)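 Visual ratings from 0, meaning no effect, up to 100, meaning complete control, were made by comparison with untreated controls 13 to 15 days after treatment. Test compounds went straight into floodwater standing 3 cm over the soil of pots holding 2-leaf seedlings.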

[3] = test system: sedge, umbrella; test: Test B flooded paddy test; format: in vivo, Cyperus difformis; details: 500 g ai/ha, Flood; scale of 0 to 100 where 0 is no effect and 100 is complete control
Summary of the method: as §1

[4] = test system: barnyardgrass; test: Test B flooded paddy test; format: in vivo, Echinochloa crus-galli; details: 500 g ai/ha, Flood; scale of 0 to 100 where 0 is no effect and 100 is complete control
Summary of the method: as §1

[5] = test system: blackgrass; test: Test C pre-/postemergence herbicide test; format: in vivo, Alopecurus myosuroides
Summary of the method: (§2)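 Pre- and postemergence greenhouse screen. Preemergence treatment went onto freshly planted seeds in loam–sand soil; postemergence treatment went onto plants 2 to 18 cm tall at the 1- to 4-leaf stage in sphagnum peat/vermiculite medium. Scoring at 13 to 15 days used a 0–100 control scale.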

[6] = test system: wheat (winter wheat); test: Test C pre-/postemergence herbicide test; format: in vivo, Triticum aestivum
Summary of the method: as §2

[7] = test system: crabgrass, large; test: Test C pre-/postemergence herbicide test; format: in vivo, Digitaria sanguinalis
Summary of the method: as §2

[8] = test system: johnsongrass; test: Test C pre-/postemergence herbicide test; format: in vivo, Sorghum halepense
Summary of the method: as §2

[9] = test system: pigweed; test: Test C pre-/postemergence herbicide test; format: in vivo, Amaranthus retroflexus
Summary of the method: as §2

[10] = test system: ragweed; test: Test C pre-/postemergence herbicide test; format: in vivo, Ambrosia elatior
Summary of the method: as §2

[11] = test system: oilseed rape; test: Test C pre-/postemergence herbicide test; format: in vivo, Brassica napus
Summary of the method: as §2

[12] = test system: velvetleaf; test: Test C pre-/postemergence herbicide test; format: in vivo, Abutilon theophrasti
Summary of the method: as §2

[13] = 125 g ai/ha, visual rating on 0 to 100 scale (0 no effect, 100 complete control), approx. 10 days
[14] = Preemergence, 31 g ai/ha, scale 0 to 100, 0 is no effect and 100 is complete control
[15] = Preemergence, 62 g ai/ha, scale 0 to 100 (0 no effect, 100 complete control)
[16] = Preemergence, 125 g ai/ha, scale 0 to 100 (0 no effect, 100 complete control)
[17] = Postemergence, 16 g ai/ha, scale 0 to 100 (0 no effect, 100 complete control)
[18] = Postemergence, 31 g ai/ha, scale 0 to 100 (0 no effect, 100 complete control)
[19] = Postemergence, 62 g ai/ha, scale 0 (no effect) to 100 (complete control)
[20] = Postemergence, 125 g ai/ha, scale 0 to 100 (0 no effect, 100 complete control)
[21] = Preemergence, 16 g ai/ha, scale 0 to 100

O=C(Nc1ccccc1F)C1C(=S)NCC1c1cccc(C(F)(F)F)c1 (stereo not shown) [Compound 274]
Plant response rating, Wheat [1, 13]: 0
Plant response rating, Wheat ([1]; 1000 g ai/ha, 0 to 100 scale (0 no effect, 100 complete control)): 40
Plant response rating, Rice [2]: 0
Plant response rating, Sedge, Umbrella [3]: 0
Plant response rating, Barnyardgrass [4]: 0
Blackgrass plant response rating [5, 14]: 0
Blackgrass plant response rating [5, 15]: 70
Plant response rating, Blackgrass [5, 16]: 75
Plant response rating (scale of 0 to 100), Blackgrass ([5]; Preemergence, 250 g ai/ha): 90
Wheat plant response rating [6, 14]: 0
Wheat plant response rating [6, 15]: 0
Plant response rating (scale of 0 to 100), Wheat ([6]; Preemergence, 250 g ai/ha): 40
Crabgrass, Large plant response rating [7, 14]: 85
Crabgrass, Large plant response rating [7, 15]: 90
Plant response rating, Crabgrass, Large [7, 16]: 98
Plant response rating (scale of 0 to 100), Crabgrass, Large ([7]; Preemergence, 250 g ai/ha): 100
Johnsongrass plant response rating [8, 14]: 0
Johnsongrass plant response rating [8, 15]: 0
Plant response rating, Johnsongrass [8, 16]: 0
Plant response rating (scale of 0 to 100), Johnsongrass ([8]; Preemergence, 250 g ai/ha): 30
Pigweed plant response rating [9, 14]: 0
Pigweed plant response rating [9, 15]: 0
Plant response rating, Pigweed [9, 16]: 0
Plant response rating (scale of 0 to 100), Pigweed ([9]; Preemergence, 250 g ai/ha): 0
Ragweed plant response rating [10, 15]: 0
Plant response rating, Ragweed [10, 16]: 0
Plant response rating (scale of 0 to 100), Ragweed ([10]; Preemergence, 250 g ai/ha): 0
Oilseed Rape plant response rating [11, 14]: 0
Oilseed Rape plant response rating [11, 15]: 0
Plant response rating, Oilseed Rape [11, 16]: 5
Plant response rating (scale of 0 to 100), Oilseed Rape ([11]; Preemergence, 250 g ai/ha): 30
Velvetleaf plant response rating [12, 14]: 0
Velvetleaf plant response rating [12, 15]: 20
Plant response rating, Velvetleaf [12, 16]: 20
Plant response rating (scale of 0 to 100), Velvetleaf ([12]; Preemergence, 250 g ai/ha): 20

CN1CC(c2cccc(C(F)(F)F)c2)C(C(=O)Nc2ccccc2F)C1=O (stereo not shown) [Compound 277]
Plant response rating, Wheat [1, 13]: 60
Plant response rating, Wheat ([1]; 500 g ai/ha, 0 to 100 scale (0 no effect, 100 complete control)): 70
Plant response rating, Rice [2]: 0
Plant response rating, Sedge, Umbrella [3]: 0
Plant response rating, Barnyardgrass [4]: 90
Plant response rating, Blackgrass [5, 17]: 0
Plant response rating, Blackgrass [5, 18]: 0
Plant response rating, Blackgrass [5, 19]: 0
Plant response rating, Blackgrass [5, 20]: 0
Blackgrass plant response rating [5, 14]: 70
Blackgrass plant response rating [5, 15]: 70
Plant response rating, Blackgrass [5, 16]: 90
Plant response rating, Blackgrass [5, 21]: 40
Plant response rating, Wheat [6, 17]: 0
Plant response rating, Wheat [6, 18]: 0
Plant response rating, Wheat [6, 19]: 0
Plant response rating, Wheat [6, 20]: 0
Wheat plant response rating [6, 14]: 60
Wheat plant response rating [6, 15]: 70
Plant response rating, Wheat [6, 21]: 40
Plant response rating, Crabgrass, Large [7, 17]: 5
Plant response rating, Crabgrass, Large [7, 18]: 15
Plant response rating, Crabgrass, Large [7, 19]: 65
Plant response rating, Crabgrass, Large [7, 20]: 70
Crabgrass, Large plant response rating [7, 14]: 98
Crabgrass, Large plant response rating [7, 15]: 100
Plant response rating, Crabgrass, Large [7, 16]: 100
Plant response rating, Crabgrass, Large [7, 21]: 95
Plant response rating, Johnsongrass [8, 17]: 0
Plant response rating, Johnsongrass [8, 18]: 0
Plant response rating, Johnsongrass [8, 19]: 0
Plant response rating, Johnsongrass [8, 20]: 10
Johnsongrass plant response rating [8, 14]: 40
Johnsongrass plant response rating [8, 15]: 65
Plant response rating, Johnsongrass [8, 16]: 85
Plant response rating, Johnsongrass [8, 21]: 0
Plant response rating, Pigweed [9, 17]: 5
Plant response rating, Pigweed [9, 18]: 10
Plant response rating, Pigweed [9, 19]: 10
Plant response rating, Pigweed [9, 20]: 30
Pigweed plant response rating [9, 14]: 10
Pigweed plant response rating [9, 15]: 35
Plant response rating, Pigweed [9, 16]: 40
Plant response rating, Pigweed [9, 21]: 0
Plant response rating, Ragweed [10, 17]: 10
Plant response rating, Ragweed [10, 18]: 40
Plant response rating, Ragweed [10, 19]: 35
Plant response rating, Ragweed [10, 20]: 40
Ragweed plant response rating [10, 14]: 0
Ragweed plant response rating [10, 15]: 0
Plant response rating, Ragweed [10, 16]: 40
Plant response rating, Ragweed [10, 21]: 0
Plant response rating, Oilseed Rape [11, 17]: 0
Plant response rating, Oilseed Rape [11, 18]: 0
Plant response rating, Oilseed Rape [11, 19]: 0
Plant response rating, Oilseed Rape [11, 20]: 0
Oilseed Rape plant response rating [11, 14]: 0
Oilseed Rape plant response rating [11, 15]: 0
Plant response rating, Oilseed Rape [11, 16]: 80
Plant response rating, Oilseed Rape [11, 21]: 0
Plant response rating, Velvetleaf [12, 17]: 0
Plant response rating, Velvetleaf [12, 18]: 0
Plant response rating, Velvetleaf [12, 19]: 0
Plant response rating, Velvetleaf [12, 20]: 15
Velvetleaf plant response rating [12, 14]: 0
Velvetleaf plant response rating [12, 15]: 0
Plant response rating, Velvetleaf [12, 16]: 35
Plant response rating, Velvetleaf [12, 21]: 0
